For 41 molecules, IC50 and inhibition results are on record in the Kinase Knowledgebase extract (Sharma et al. 2016).

What is called pIC50 is the negative decadic logarithm of the IC50, by convention in mol/L. High values mean a low IC50, low ones a high IC50. The term inhibition denotes the relative decrease from the control value, in per cent.

Each structure is given as a SMILES string. pIC50: −log10 of the molar value.

Sequence of MAPK14 (Q16539 whole entry, looked up): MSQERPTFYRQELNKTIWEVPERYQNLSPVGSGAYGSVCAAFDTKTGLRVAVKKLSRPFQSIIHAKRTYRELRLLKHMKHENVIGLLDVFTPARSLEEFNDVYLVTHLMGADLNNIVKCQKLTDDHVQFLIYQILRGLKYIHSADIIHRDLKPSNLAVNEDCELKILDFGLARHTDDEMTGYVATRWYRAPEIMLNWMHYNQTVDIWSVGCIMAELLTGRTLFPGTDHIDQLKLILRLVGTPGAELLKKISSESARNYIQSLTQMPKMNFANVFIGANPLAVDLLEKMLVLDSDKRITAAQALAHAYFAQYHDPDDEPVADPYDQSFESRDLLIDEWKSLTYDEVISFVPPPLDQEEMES

One experiment has as its target MAPK14 (UniProt Q16539). Briefly: p38 alpha Inhibition.
Conditions: not given
Consider `Clc1ccccc1-c1nc(Nc2ccncc2)c2ccccc2n1`, for which the pIC50 was 6.77. On the same count and under the same terms, the value for `c1ccc(-c2nc(Nc3ccncc3)c3ccccc3n2)cc1` was 6.34. On to `COc1cccc(Nc2nc(-c3ccccc3)nc3ccccc23)c1`, for which the pIC50 is 6.24.

For `Fc1ccccc1-c1nc(Nc2ccncc2)c2ccccc2n1`, the pIC50 was 6.94. The molecule `Fc1ccc(-c2nc(Nc3ccncc3)c3ccccc3n2)cc1` showed a pIC50 of 6.36. `Cc1ccccc1-c1nc(Nc2ccncc2)c2ccccc2n1` had a pIC50 of 6.46. The same measure, in the same setting: the result for `Brc1ccccc1-c1nc(Nc2ccncc2)c2ccccc2n1` reads 6.55; that for `c1ccc(-c2nc(NCc3ccncc3)c3ccccc3n2)cc1`, 5.92. Consider `Nc1ccc2nc(-c3ccccc3F)nc(Nc3ccncc3)c2c1`, for which the pIC50 was 6.77.

Still in this experiment, the particulars now being: concentration not given here.
Consider `Fc1ccccc1-c1nc(Nc2ccncc2)c2cccnc2n1`, for which the inhibition worked out at 97%. Still for that read-out and setting: the value for `Oc1cccc(Nc2nc(-c3ccccc3)nc3ccccc23)c1` was 19%. `c1ccc(-c2nc(Nc3ccncn3)c3ccccc3n2)cc1` gave an inhibition of 97%.

As to `COc1cccc(CNc2ccc3nc(-c4ccccc4F)nc(Nc4ccncc4)c3c2)c1`, the inhibition was determined as 96%. Still for that read-out and setting: the value for `COc1ccc(N(c2ccncc2)c2nc(-c3ccccc3)nc3ccccc23)cc1` was 47%; that for `Clc1ccccc1-c1nc(Nc2ccncc2)c2ccccc2n1` was 100%; that for `O=[N+]([O-])c1ccc2nc(-c3ccccc3F)nc(Nc3ccncc3)c2c1` was 91%. The same measure, in the same setting: the result for `N#Cc1cccc(Nc2nc(-c3ccccc3)nc3ccccc23)c1` reads 13%; that for `c1ccc(-c2nc(NCCc3ccccn3)c3ccccc3n2)cc1`, 16%.

In turn, `Fc1ccc(F)c(CNc2nc(-c3ccccc3)nc3ccccc23)c1` showed an inhibition of 63%. Still for that read-out and setting: the result for `COc1cc2nc(-c3ccccc3Cl)nc(Nc3ccncc3)c2cc1OC` reads 97%. On the same count and under the same terms, the result for `COc1cccc(Nc2nc(-c3ccccc3)nc3ccccc23)c1` reads 95%; that for `Fc1cccc(-c2nc(Nc3ccncc3)c3ccccc3n2)c1`, 68%. On the same count and under the same terms, the result for `Fc1ccccc1-c1nc(Nc2ccncc2)c2ccccc2n1` reads 99%. `Fc1ccc(-c2nc(Nc3ccncc3)c3ccccc3n2)cc1` had an inhibition of 92%. Still for that read-out and setting: the value for `Clc1cccc(Cl)c1-c1nc(Nc2ccncc2)c2ccccc2n1` was 85%.

The molecule `Cc1ccccc1-c1nc(Nc2ccncc2)c2ccccc2n1` returned an inhibition of 99%. Same read-out and setting: the value for `Brc1ccccc1-c1nc(Nc2ccncc2)c2ccccc2n1` was 99%; that for `c1ccc(Nc2nc(-c3ccccc3)nc3ccccc23)cc1` was 45%; that for `COc1ccc(CNc2ccc3nc(-c4ccccc4F)nc(Nc4ccncc4)c3c2)cc1` was 96%. The same measure, in the same setting: the value for `c1ccc(-c2nc(Nc3cccnc3)c3ccccc3n2)cc1` was 45%; that for `Oc1ccc(Nc2nc(-c3ccccc3)nc3ccccc23)cc1` was 63%.

In the case of `c1ccc(-c2nc(NCc3ccncc3)c3ccccc3n2)cc1`, the inhibition is 64%. Same read-out and setting: the result for `COc1ccc(Nc2nc(-c3ccccc3)nc3ccccc23)cc1` reads 16%; that for `CC(C)N(c1ccncc1)c1nc(-c2ccccc2)nc2ccccc12`, 69%; that for `CN(C)c1ccc(CNc2nc(-c3ccccc3)nc3ccccc23)cc1`, 25%. Still for that read-out and setting: the value for `Nc1ccc2c(Nc3ccncc3)nc(-c3ccccc3F)nc2c1` was 94%; that for `Oc1ccccc1Nc1nc(-c2ccccc2)nc2ccccc12` was 28%. On the same count and under the same terms, the result for `c1ccc(-c2nc(Nc3ncccn3)c3ccccc3n2)cc1` reads 3%. With `OCCc1ccc(Nc2nc(-c3ccccc3)nc3ccccc23)cc1`, the inhibition was found to be 34%. Same read-out and setting: the value for `c1ccc(-c2nc(NCc3cccnc3)c3ccccc3n2)cc1` was 54%; that for `c1ccc(-c2nc(Nc3ccc4[nH]ccc4c3)c3ccccc3n2)cc1` was 70%. As for `Clc1ccc(-c2nc(NCc3ccncc3)c3ccccc3n2)cc1`, the inhibition came out at 51%. Same read-out and setting: the value for `Fc1cccc(F)c1-c1nc(Nc2ccncc2)c2ccccc2n1` was 97%; that for `COc1ccc(-c2nc(Nc3ccncc3)c3ccccc3n2)cc1` was 5%; that for `CCC(C)c1ccc(Nc2nc(-c3ccccc3)nc3ccccc23)cc1` (stereo not drawn) was 10%. Same read-out and setting: the value for `c1ccc(-c2nc(Nc3cccc4[nH]ccc34)c3ccccc3n2)cc1` was 72%; that for `Clc1cccc(-c2nc(NCc3ccccc3)c3ccccc3n2)c1` was 37%. Still for that read-out and setting: the result for `COc1ccccc1Nc1nc(-c2ccccc2)nc2ccccc12` reads 37%.
